Results taken from ChEMBL document CHEMBL1201862, “PubChem BioAssay data set” (2004).
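Where inhibition never reached the appropriate level, the endpoint shown equals the highest concentration tested. Otherwise, values were interpolated linearly from a five-concentration, 48-hour dose response in 96-well plates. GI50 = concentration required for 50% inhibition of growth.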 Activity calls are given as the source filed them. Cut-off read from the data, not from the text of the source: active = GI50 up to about 1.1 µM and inactive = higher.

What was measured:
Test in all cases: NCI anticancer screen, dose series, 48 h
ACHN = test system: ACHN
A549 = test system: A549
CAKI-1 = test system: CAKI-1
CCRF-CEM = test system: CCRF-CEM
MOLT-4 = test system: MOLT-4
RPMI-8226 = test system: RPMI-8226
COLO 205 = test system: COLO 205
SNB-75 = test system: SNB-75
SN12C = test system: SN12C
HOP-62 = test system: HOP-62
NCI-H226 = test system: NCI-H226
SK-MEL-28 = test system: SK-MEL-28
SF-539 = test system: SF-539
M14 = test system: M14
U-251 = test system: U-251
TK-10 = test system: TK-10
HCT-15 = test system: HCT-15
OVCAR-4 = test system: OVCAR-4
OVCAR-8 = test system: OVCAR-8
SK-MEL-5 = test system: SK-MEL-5

## CC1=NC(=N)N=C(C)C1/N=N/c1ccc2[nH]c(C)nc2c1 (centres undefined)
ACHN
  GI50: > 100 µM (inactive)
A549
  GI50: > 100 µM (inactive)
CAKI-1
  GI50: > 100 µM (inactive)
CCRF-CEM
  GI50: > 100 µM (inactive)
MOLT-4
  GI50: > 100 µM (inactive)
RPMI-8226
  GI50: > 100 µM (inactive)
COLO 205
  GI50: > 100 µM (inactive)
SNB-75
  GI50: > 100 µM (inactive)
SN12C
  GI50: > 100 µM (inactive)
HOP-62
  GI50: > 100 µM (inactive)
NCI-H226
  GI50: > 100 µM (inactive)
SK-MEL-28
  GI50: > 100 µM (inactive)
SF-539
  GI50: > 100 µM (inactive)
M14
  GI50: > 100 µM (inactive)
U-251
  GI50: > 100 µM (inactive)
TK-10
  GI50: > 100 µM (inactive)
HCT-15
  GI50: > 100 µM
OVCAR-4
  GI50: > 100 µM (inactive)
OVCAR-8
  GI50: > 100 µM (inactive)

## O=C1Cc2ccccc2N1/N=C\c1ccc([N+](=O)[O-])cc1
ACHN
  GI50: > 100 µM (inactive)
A549
  GI50: > 100 µM (inactive)
CAKI-1
  GI50: > 100 µM (inactive)
CCRF-CEM
  GI50: > 100 µM (inactive)
MOLT-4
  GI50: > 100 µM (inactive)
RPMI-8226
  GI50: > 100 µM (inactive)
COLO 205
  GI50: > 100 µM (inactive)
SNB-75
  GI50: 54.8 µM (inactive)
HOP-62
  GI50: > 100 µM (inactive)
NCI-H226
  GI50: > 100 µM (inactive)
SK-MEL-28
  GI50: > 100 µM (inactive)
SK-MEL-5
  GI50: > 100 µM (inactive)
SF-539
  GI50: > 100 µM (inactive)
M14
  GI50: > 100 µM (inactive)
U-251
  GI50: > 100 µM (inactive)
TK-10
  GI50: > 100 µM (inactive)
HCT-15
  GI50: > 100 µM
OVCAR-4
  GI50: > 100 µM (inactive)
OVCAR-8
  GI50: > 100 µM (inactive)

## O=[N+]([O-])C(=C(NCc1ccccc1)NCc1ccccc1)C(Cl)=C(Cl)Cl
ACHN
  GI50: 21.6 µM (inactive)
A549
  GI50: 42.7 µM (inactive)
CAKI-1
  GI50: 10.7 µM (inactive)
CCRF-CEM
  GI50: 23.1 µM (inactive)
MOLT-4
  GI50: 23.1 µM (inactive)
RPMI-8226
  GI50: 29.9 µM (inactive)
COLO 205
  GI50: 19.4 µM (inactive)
SNB-75
  GI50: 2.1 µM (inactive)
SN12C
  GI50: 34.9 µM (inactive)
HOP-62
  GI50: > 100 µM (inactive)
NCI-H226
  GI50: 39.5 µM (inactive)
SK-MEL-28
  GI50: 61.2 µM (inactive)
SK-MEL-5
  GI50: 20.2 µM (inactive)
SF-539
  GI50: 43 µM (inactive)
M14
  GI50: 26 µM (inactive)
TK-10
  GI50: 35.9 µM (inactive)
HCT-15
  GI50: 23.3 µM
OVCAR-4
  GI50: 31.7 µM (inactive)
OVCAR-8
  GI50: 36.6 µM (inactive)

## CCOC(=O)[C@]12C3C=CC(C3)C1C(=O)C1OC12 (some centres undefined)
ACHN
  GI50: > 100 µM (inactive)
A549
  GI50: > 100 µM (inactive)
CAKI-1
  GI50: > 100 µM (inactive)
CCRF-CEM
  GI50: > 100 µM (inactive)
MOLT-4
  GI50: > 100 µM (inactive)
RPMI-8226
  GI50: > 100 µM (inactive)
COLO 205
  GI50: > 100 µM (inactive)
SNB-75
  GI50: 81.5 µM (inactive)
SN12C
  GI50: > 100 µM (inactive)
HOP-62
  GI50: > 100 µM (inactive)
NCI-H226
  GI50: > 100 µM (inactive)
SK-MEL-28
  GI50: > 100 µM (inactive)
SK-MEL-5
  GI50: > 100 µM (inactive)
SF-539
  GI50: > 100 µM (inactive)
U-251
  GI50: > 100 µM (inactive)
TK-10
  GI50: > 100 µM (inactive)
HCT-15
  GI50: > 100 µM
OVCAR-4
  GI50: > 100 µM (inactive)
OVCAR-8
  GI50: > 100 µM (inactive)

## NCCN1CCCCCc2ccccc21
ACHN
  GI50: > 10 µM (inactive)
A549
  GI50: > 10 µM (inactive)
CAKI-1
  GI50: > 10 µM (inactive)
CCRF-CEM
  GI50: > 10 µM (inactive)
MOLT-4
  GI50: > 10 µM (inactive)
RPMI-8226
  GI50: > 10 µM (inactive)
COLO 205
  GI50: > 10 µM (inactive)
SNB-75
  GI50: > 10 µM (inactive)
SN12C
  GI50: > 10 µM (inactive)
HOP-62
  GI50: > 10 µM (inactive)
NCI-H226
  GI50: > 10 µM (inactive)
SK-MEL-28
  GI50: > 10 µM (inactive)
SK-MEL-5
  GI50: > 10 µM (inactive)
SF-539
  GI50: > 10 µM (inactive)
U-251
  GI50: > 10 µM (inactive)
TK-10
  GI50: > 10 µM (inactive)
HCT-15
  GI50: > 10 µM
OVCAR-4
  GI50: > 10 µM (inactive)
OVCAR-8
  GI50: > 10 µM (inactive)

## CN(/N=C/c1ccccc1C(=O)O)C1=NCCCCN1
ACHN
  GI50: > 100 µM (inactive)
A549
  GI50: > 100 µM (inactive)
CAKI-1
  GI50: > 100 µM (inactive)
CCRF-CEM
  GI50: > 100 µM (inactive)
MOLT-4
  GI50: > 100 µM (inactive)
RPMI-8226
  GI50: > 100 µM (inactive)
COLO 205
  GI50: > 100 µM (inactive)
SNB-75
  GI50: > 100 µM (inactive)
SN12C
  GI50: > 100 µM (inactive)
HOP-62
  GI50: > 100 µM (inactive)
NCI-H226
  GI50: > 100 µM (inactive)
SK-MEL-5
  GI50: > 100 µM (inactive)
SF-539
  GI50: > 100 µM (inactive)
M14
  GI50: > 100 µM (inactive)
U-251
  GI50: > 100 µM (inactive)
TK-10
  GI50: > 100 µM (inactive)
HCT-15
  GI50: > 100 µM
OVCAR-4
  GI50: > 100 µM (inactive)
OVCAR-8
  GI50: > 100 µM (inactive)
